Data from US7132409B2, “Adenosine derivatives and use thereof” (Toa Eiyo Ltd., priority 2000, dated 2006).
Values after ≈ are worked out from the molar mass of the structure shown. Where two headings read alike, the source gives them in different places.

Tests used:
[1] = Test Example 2: saturation solubility in isotonic borate buffer (HPLC); conditions: for solubility at 6 h: isotonic borate buffer, 20 °C, pH 7, aqueous buffer, thermodynamic from solid
Procedure: (§1) Each of the test compounds was dispersed in an isotonic borate buffer (pH 7.0). The resultant mixture was shaken at 20° C. for 6 hours and then centrifuged. The concentration of the test compound in the supernatant was measured through HPLC for calculation of saturation solubility of the compound.
(§2) Detector: UV absorptiometer (wavelength: 270 nm)
(§3) Column: ODS column (inner diameter 4.6 mm, length 15 cm)
(§4) Mobile phase: An acetonitrile/triethylammonium acetate buffer (pH 7) mixture

optic nerve failure = experiment: Model of retina failure induced through reperfusion after transient ischemia in rat; assay type: in vivo
blood flow in the retina = experiment: Effects on blood vessel diameter and blood flow in the retina of rabbits; assay type: in vivo
[2] = tested on: ocular tension of Japanese white rabbits; experiment: Test Example 1: effect of lowering ocular tension after instillation in rabbit eyes; assay type: in vivo; conditions: 0.1% solution, 50 μL instilled to one eye; for AUC (area under the curve of time versus change in difference in ocular tension, treated eye vs eye drop base eye): up to 480 min
Procedure: Each of the mentioned compounds was dissolved in saline containing polysorbate 80 (hereinafter the saline will be referred to as “eye drop base A”) or in a borate buffer (pH 7.0) containing polysorbate 80 (hereinafter the solution will be referred to as “eye drop base B”) (polysorbate 80 content of each base: 5 mg/mL).
Japanese white rabbits (male; Kitayama Labes Co., Ltd.) (weight: 2.7–3.9 kg) were employed in the test for measuring ocular tension. The rabbits were retained in a box-type fixation apparatus during the test.
The ocular tension of each rabbit was measured by use of a Model 30 Classic Pneumatonometer (product of Mentor) without anesthesia. Before the ocular tension was measured, 0.4% oxybuprocaine hydrochloride (Benoxil 0.4% eye drop solution, product of Santen Pharmaceutical Co., Ltd.) was instilled into the eyes of each rabbit, to thereby anesthetize the surface of the cornea. The ocular tension of each rabbit was measured several times at predetermined intervals. Three measurements of ocular tension, as measured when a constant value was reached, were averaged, and the average value was employed as representing the ocular tension.
A 0.1% solution of each test compound (50 μL) was instilled to one eye of each of the respective rabbits, and simultaneously the eye drop base (50 μL) was instilled to the other eye. The ocular tensions of both eyes were measured 60 minutes before instillation of the test compound; 0 minute immediately before instillation; and 30, 60, 90, 120, 150, 180, 240, 300, 360, 420, and 480 minutes after instillation. Four to six rabbits were employed for each test compound. For control, each eye drop base was instilled to both eyes of rabbits, and the ocular tension thereof was measured in a manner similar to that described above.
For each test compound, the effect of lowering ocular tension was evaluated on the basis of the following values: the area under the curve of time versus change in difference between the ocular tension of the eye to which the test compound was instilled and that of the eye to which the eye drop base was instilled (hereinafter the area will be abbreviated as AUC (mmHg•min)); and the maximum value of difference between the ocular tension of the eye to which the test compound was instilled and that of the eye to which the eye drop base was instilled (hereinafter the value will be abbreviated as Emax (mmHg)).

[3] = pH 7
Procedure: as §1, §2, §3, §4

[4] = eye drop base B (borate buffer pH 7.0 with polysorbate 80)
[5] = eye drop base A (saline with polysorbate 80)

SMILES: N#CCCCCC#Cc1nc(N)c2ncn([C@@H]3O[C@H](CO)[C@@H](O)[C@H]3O)c2n1 [Compound 1, 2-(6-cyano-1-hexyn-1-yl)adenosine]
- solubility at 6 h [1]: 16600 µg/mL (≈ 44600 µM)
- melting point: 91 to 94 °C
- effects of protecting optic nerve failure (optic nerve failure): particularly excellent effects of protecting optic nerve failure
- effects of promoting vasodilatation and blood flow in the retina (blood flow in the retina): particularly excellent effects of promoting vasodilatation and blood flow in the retina
- Emax (maximum difference in ocular tension, treated eye vs eye drop base eye) [2, 4]: −4.3 mmHg
- AUC (area under the curve of time versus change in difference in ocular tension, treated eye vs eye drop base eye) [2, 4]: −1303.1 mmHg · min

SMILES: N#CCCCCC#Cc1nc(N)c2ncn([C@@H]3O[C@H](COP(=O)([O-])[O-])[C@@H](O)[C@H]3O)c2n1.[Na+].[Na+] [Compound 2, disodium 2-(6-cyano-1-hexyn-1-yl)adenosine 5′-monophosphate]
- solubility at 6 h [1]: > 200000 µg/mL
- Emax (maximum difference in ocular tension, treated eye vs eye drop base eye) [2, 4]: −6.0 mmHg
- AUC (area under the curve of time versus change in difference in ocular tension, treated eye vs eye drop base eye) [2, 4]: −1965.0 mmHg · min

SMILES: N#CCCCC#Cc1nc(N)c2ncn([C@@H]3O[C@H](CO)[C@@H](O)[C@H]3O)c2n1 [Referential Compound 1, 2-(5-cyano-1-pentyn-1-yl)adenosine]
- Emax (maximum difference in ocular tension, treated eye vs eye drop base eye) [2, 4]: −3.0 mmHg
- AUC (area under the curve of time versus change in difference in ocular tension, treated eye vs eye drop base eye) [2, 4]: −584.0 mmHg · min

SMILES: N#CCCCCCC#Cc1nc(N)c2ncn([C@@H]3O[C@H](CO)[C@@H](O)[C@H]3O)c2n1 [Referential Compound 2, 2-(7-cyano-1-heptyn-1-yl)adenosine]
- Emax (maximum difference in ocular tension, treated eye vs eye drop base eye) [2, 4]: −2.6 mmHg
- AUC (area under the curve of time versus change in difference in ocular tension, treated eye vs eye drop base eye) [2, 4]: −844.5 mmHg · min

SMILES: Nc1nc(C#CC2CCCC2)nc2c1ncn2[C@@H]1O[C@H](CO)[C@@H](O)[C@H]1O [Referential Compound 3, 2-cyclopentylethynyladenosine]
- Saturation solubility [3]: 1400 µg/mL
- Emax (maximum difference in ocular tension, treated eye vs eye drop base eye) [2, 4]: −4.4 mmHg
- AUC (area under the curve of time versus change in difference in ocular tension, treated eye vs eye drop base eye) [2, 4]: −1532.7 mmHg · min

SMILES: CCCCCCC#Cc1nc(N)c2ncn([C@@H]3O[C@H](CO)[C@@H](O)[C@H]3O)c2n1 [Referential Compound 4, 2-(1-octyn-1-yl)adenosine]
- solubility at 6 h [1]: 300 µg/mL (≈ 799 µM)
- Emax (maximum difference in ocular tension, treated eye vs eye drop base eye) [2, 5]: −4.2 mmHg
- AUC (area under the curve of time versus change in difference in ocular tension, treated eye vs eye drop base eye) [2, 5]: −1093.5 mmHg · min

SMILES: Nc1nc(C#CCCCCN2C(=O)c3ccccc3C2=O)nc2c1ncn2[C@@H]1O[C@H](CO)[C@@H](O)[C@H]1O [Referential Compound 5, 2-(6-phthalimidyl-1-hexyn-1-yl)adenosine]
- solubility at 6 h [1]: 700 µg/mL (≈ 1420 µM)
- Emax (maximum difference in ocular tension, treated eye vs eye drop base eye) [2, 5]: −6.3 mmHg
- AUC (area under the curve of time versus change in difference in ocular tension, treated eye vs eye drop base eye) [2, 5]: −1471.0 mmHg · min

SMILES: CCCCC#Cc1nc(N)c2ncn([C@@H]3O[C@H](C(=O)NC)[C@@H](O)[C@H]3O)c2n1 [Referential Compound 6, 2-(1-hexyn-1-yl)adenosine-4′-methylcarboxamide]
- Saturation solubility ([1]; isotonic borate buffer pH 7.0, shaken at 20° C. for 6 hours): 500 µg/mL
- Emax (maximum difference in ocular tension, treated eye vs eye drop base eye) [2, 5]: −6.0 mmHg
- AUC (area under the curve of time versus change in difference in ocular tension, treated eye vs eye drop base eye) [2, 5]: −1838.3 mmHg · min
